Data set [1] has as its system zonula occludens-1 (ZO-1), tight junctions between bEnd3 cells. The experiment in a line: Immunofluorescence of ZO-1 (tight junctions) in bEnd3 cells. The class given is cell-based, mouse. As to conditions: 90 min. On the procedure: Immunofluorescence of zonula occludens-1 (ZO-1) was performed to determine the in vitro effect of the compounds on tight junctions (TJs) between bEnd3 cells. The experiment was conducted simultaneously with the permeability assay. Briefly, cells were seeded on cover slides in 24-well plates at a concentration of 3.5 × 10^4 cells/well and incubated for 3–4 d at 37 °C and 5% CO2 in a humidified atmosphere, until they reached 100% confluence. The cells were then treated with 10 and 50 µM concentrations of the compounds for 90 min. After the allotted treatment time, the cells were fixed with ice-cold acetone at −20 °C for 10 min; blocked with 1% bovine serum albumin (BSA, cat. no. 9048-46-8, Acros Organics, Thermo Fischer Scientific, Waltham, MA, USA) in PBS, containing 0.1% Tween® 20 (cat. no. P1379, Sigma-Aldrich Co. LLC, St. Louis, MO, USA); and labeled with anti-ZO-1 (rabbit polyclonal antibody, 1:500, cat. no. ab96587, Abcam, Cambridge, UK) at 4 °C overnight. The slides were then incubated with a secondary donkey anti-rabbit Alexa Fluor™ 555 antibody (1:1000, cat. no. 4413S, Molecular Probes, Thermo Fischer Scientific, Waltham, MA, USA) for 1 h at room temperature (RT) in the dark. […] Fluorescence microscopy was performed on a spinning disk confocal microscope system (Andor Dragonfly 505, Oxford Instruments, Abingdon, UK) with 60 × oil NA 1.4 objective, with em./ex. = 561/617 nm for ZO-1 and 405/445 nm for DAPI. The obtained data were analyzed with Fiji and compiled via the FigureJ plugin [46].
To further explore the neuroprotective effect of the compounds, we tested their ability to influence the BBB and its permeability, utilizing a static BBB model with brain microvascular endothelial cell line bEnd3 [36], as it would be essential for the compounds to pass the BBB and protect the neuronal cells. […] Here, we determined any changes in the permeability of the BBB by imitating an endothelial barrier via a static BBB model of bEnd3 cells (Figure 11a,c,e). […]

In data set [2] the test system is isolated rat-brain synaptosomes. As to the kind of experiment: Level of reduced glutathione (GSH) in isolated synaptosomes, substances administered alone. As to conditions: 100 µM. As for the experimental part:
(§1) Preparation of the synaptosomes was carried out by multiple centrifugations using the Percoll gradient. Homogenization of the brains was performed in 10 volumes of cold buffer 1, which contained 5 mM HEPES and 0.32 M sucrose (pH = 7.4), followed by centrifugation at different speeds. For preparation of the gradient, the synaptosomes were isolated by Percoll reagent. Synaptosomes were resuspended and incubated in buffer 2, which contained 290 mM NaCl, 0.95 mM MgCl2x6H2O, 10 mM KCl, 2.4 mM CaCl2xH2O, 2.1 mM NaH2PO4, 44 mM HEPES, and 13 mM D-glucose. Incubations were performed in a 5% CO2 + 95% O2 atmosphere. The method of Lowry et al., using bovine serum albumin as a standard content, was applied for determination of synaptosomal protein [51].
After the treatment with the tested compounds, the glutathione levels of the synaptosomes were determined with an Ellman reagent (DTNB). The GSH levels were evaluated based on the synaptosomal sediment, precipitated with 5% TCA, and centrifuged for 10 min at 4000× g. GSH levels in the supernatant were measured spectrophotometrically at 412 nm by a Spectro UV-vis split spectrophotometer (LaboMed. Inc., Los Angelis, California, USA). […]

For data set [3] the test system is unchanged. As to the kind of experiment: Synaptosomal viability (MTT), substances administered alone. As to conditions: 100 µM. On the procedure:
as §1
Synaptosomal viability was monitored based on a (3-(4,5)-dimethylthiazol-2-yl)-2,5-diphenyl tetrazolium bromide) assay. After incubation with the compounds, synaptosomes were treated with 0.5 mg/mL solution of (3-(4,5)-dimethylthiazol-2-yl)-2,5-diphenyl tetrazolium bromide) for 10 min at […]. Then, the synaptosomes were centrifuged twice at 15,000× g for 1 min. The resulting formazan crystals were dissolved in DMSO (dimethyl sulfoxide), and the extinction was determined by spectrophotometric measurements at 580–660 nm. […]

A short description of data set [4]: Stability by UV-vis measurements at different pH. The class given is physicochemical. To be noted: 50 µM, pH 2, 4.5, 7.4 and 8.4, after 1, 2, 3 and 24 h. As for the experimental part:
The stability of the compounds was also considered a potential issue. Therefore, selected compounds (3a, 3d, 5d, and 5e at a concentration of 50 µM) were studied by UV-vis measurements under different pH conditions, including pH 2, 4.5, 7.4, and 8.4, to represent different physiological (gastric, intestinal, etc.) conditions.

“Also recorded” adds a separate entry of the source.

For the compound `COc1ccc2[nH]c(C(=O)NN=Cc3cccc(O)c3O)cc2c1` [Compound 5a, N′-(2,3-Dihydroxybenzylidene)-5-methoxy-1H-indole-2-carbohydrazide], the “effect on tight junctions (ZO-1 distribution)” value (“effect on tight junctions” below) in data set [1] (10 µM) is “without affecting the TJs”.

As for `COc1ccc2[nH]cc(CCNC(C)=O)c2c1` [Melatonin], the “reduction of GSH level vs. non-treated synaptosomes” value in data set [2] is “did not decrease”. Also, the “reduction of synaptosomal viability (SV) vs. non-treated synaptosomes” value in data set [3] is on record as 20%. Consider `COc1cc(C=NNC(=O)CCc2c[nH]c3ccccc23)cc(OC)c1O` [Compound 3f, N′-(4-Hydroxy-3,5-dimethoxybenzylidene)-3-(1H-indol-3-yl)propanehydrazide], for which the “reduction of GSH level vs. non-treated synaptosomes” value in data set [2] was found to be 40%. As for `COc1cc(C=NNC(=O)CCc2c[nH]c3ccccc23)ccc1O` [Compound 3d, N′-(4-Hydroxy-3-methoxybenzylidene)-3-(1H-indol-3-yl)propanehydrazide], the “stability (UV-vis spectra over time)” value in data set [4] is on record as “stable over time”. With `COc1ccc2[nH]c(C(=O)NN=Cc3ccc(O)c(O)c3)cc2c1` [Compound 5b, N′-(3,4-Dihydroxybenzylidene)-5-methoxy-1H-indole-2-carbohydrazide], the “effect on tight junctions” value in data set [1] (10 µM) is “without affecting the TJs”. With `COc1ccc(C=NNC(=O)c2cc3cc(OC)ccc3[nH]2)c(O)c1` [Compound 5e, N′-(2-Hydroxy-4-methoxybenzylidene)-5-methoxy-1H-indole-2-carbohydrazide], in data set [1] (10 and 50 µM), the “effect on tight junctions” value is “appears to disrupt TJs”. For the same compound, in data set [4], the “stability (UV-vis spectra over time)” value is “stable over time; also recorded: very good stability”.

The record behind these values is paper PMC10135567, “New Indole-3-Propionic Acid and 5-Methoxy-Indole Carboxylic Acid Derived Hydrazone Hybrids as Multifunctional Neuroprotectors” (Antioxidants, 2023).
